Laboratory results as given in ChEMBL document CHEMBL5518204, “Discovery and Proof of Concept of Potent Dual Polθ/PARP Inhibitors for Efficient Treatment of Homologous Recombination-Deficient Tumors” (J Med Chem, 2024).
Calls of active or inactive are those of the source. The rule behind the calls is not given here.

Legend:
[1] = test system: MDA-MB-436; test: Antiproliferative activity against BRCA1-deficient human MDA-MB-436 cells assessed as inhibition of cell proliferation incubated for 5 days by MTT assay; format: functional, cell-based; details: MDA-MB-436, 120 h
[2] = test system: SK-OV-3; test: Antiproliferative activity against BRCA-proficient human SK-OV-3 cells assessed as inhibition of cell proliferation incubated for 5 days by MTT assay; format: functional, cell-based; details: SK-OV-3, 120 h
[3] = test system: MCF-10A; test: (§1) Antiproliferative activity against human MCF-10A cells assessed as inhibition of cell proliferation incubated for 5 days by MTT assay; format: toxicity, cell-based; details: mcf-10a
[4] = target: T1, DNA polymerase theta (Homo sapiens, UniProt O75417); test: Inhibition of DNA polymerase theta (unknown origin) ATPase activity incubated for 60 mins in presence of ATP by ADP-glo kinase assay
T1 sequence (O75417 whole entry): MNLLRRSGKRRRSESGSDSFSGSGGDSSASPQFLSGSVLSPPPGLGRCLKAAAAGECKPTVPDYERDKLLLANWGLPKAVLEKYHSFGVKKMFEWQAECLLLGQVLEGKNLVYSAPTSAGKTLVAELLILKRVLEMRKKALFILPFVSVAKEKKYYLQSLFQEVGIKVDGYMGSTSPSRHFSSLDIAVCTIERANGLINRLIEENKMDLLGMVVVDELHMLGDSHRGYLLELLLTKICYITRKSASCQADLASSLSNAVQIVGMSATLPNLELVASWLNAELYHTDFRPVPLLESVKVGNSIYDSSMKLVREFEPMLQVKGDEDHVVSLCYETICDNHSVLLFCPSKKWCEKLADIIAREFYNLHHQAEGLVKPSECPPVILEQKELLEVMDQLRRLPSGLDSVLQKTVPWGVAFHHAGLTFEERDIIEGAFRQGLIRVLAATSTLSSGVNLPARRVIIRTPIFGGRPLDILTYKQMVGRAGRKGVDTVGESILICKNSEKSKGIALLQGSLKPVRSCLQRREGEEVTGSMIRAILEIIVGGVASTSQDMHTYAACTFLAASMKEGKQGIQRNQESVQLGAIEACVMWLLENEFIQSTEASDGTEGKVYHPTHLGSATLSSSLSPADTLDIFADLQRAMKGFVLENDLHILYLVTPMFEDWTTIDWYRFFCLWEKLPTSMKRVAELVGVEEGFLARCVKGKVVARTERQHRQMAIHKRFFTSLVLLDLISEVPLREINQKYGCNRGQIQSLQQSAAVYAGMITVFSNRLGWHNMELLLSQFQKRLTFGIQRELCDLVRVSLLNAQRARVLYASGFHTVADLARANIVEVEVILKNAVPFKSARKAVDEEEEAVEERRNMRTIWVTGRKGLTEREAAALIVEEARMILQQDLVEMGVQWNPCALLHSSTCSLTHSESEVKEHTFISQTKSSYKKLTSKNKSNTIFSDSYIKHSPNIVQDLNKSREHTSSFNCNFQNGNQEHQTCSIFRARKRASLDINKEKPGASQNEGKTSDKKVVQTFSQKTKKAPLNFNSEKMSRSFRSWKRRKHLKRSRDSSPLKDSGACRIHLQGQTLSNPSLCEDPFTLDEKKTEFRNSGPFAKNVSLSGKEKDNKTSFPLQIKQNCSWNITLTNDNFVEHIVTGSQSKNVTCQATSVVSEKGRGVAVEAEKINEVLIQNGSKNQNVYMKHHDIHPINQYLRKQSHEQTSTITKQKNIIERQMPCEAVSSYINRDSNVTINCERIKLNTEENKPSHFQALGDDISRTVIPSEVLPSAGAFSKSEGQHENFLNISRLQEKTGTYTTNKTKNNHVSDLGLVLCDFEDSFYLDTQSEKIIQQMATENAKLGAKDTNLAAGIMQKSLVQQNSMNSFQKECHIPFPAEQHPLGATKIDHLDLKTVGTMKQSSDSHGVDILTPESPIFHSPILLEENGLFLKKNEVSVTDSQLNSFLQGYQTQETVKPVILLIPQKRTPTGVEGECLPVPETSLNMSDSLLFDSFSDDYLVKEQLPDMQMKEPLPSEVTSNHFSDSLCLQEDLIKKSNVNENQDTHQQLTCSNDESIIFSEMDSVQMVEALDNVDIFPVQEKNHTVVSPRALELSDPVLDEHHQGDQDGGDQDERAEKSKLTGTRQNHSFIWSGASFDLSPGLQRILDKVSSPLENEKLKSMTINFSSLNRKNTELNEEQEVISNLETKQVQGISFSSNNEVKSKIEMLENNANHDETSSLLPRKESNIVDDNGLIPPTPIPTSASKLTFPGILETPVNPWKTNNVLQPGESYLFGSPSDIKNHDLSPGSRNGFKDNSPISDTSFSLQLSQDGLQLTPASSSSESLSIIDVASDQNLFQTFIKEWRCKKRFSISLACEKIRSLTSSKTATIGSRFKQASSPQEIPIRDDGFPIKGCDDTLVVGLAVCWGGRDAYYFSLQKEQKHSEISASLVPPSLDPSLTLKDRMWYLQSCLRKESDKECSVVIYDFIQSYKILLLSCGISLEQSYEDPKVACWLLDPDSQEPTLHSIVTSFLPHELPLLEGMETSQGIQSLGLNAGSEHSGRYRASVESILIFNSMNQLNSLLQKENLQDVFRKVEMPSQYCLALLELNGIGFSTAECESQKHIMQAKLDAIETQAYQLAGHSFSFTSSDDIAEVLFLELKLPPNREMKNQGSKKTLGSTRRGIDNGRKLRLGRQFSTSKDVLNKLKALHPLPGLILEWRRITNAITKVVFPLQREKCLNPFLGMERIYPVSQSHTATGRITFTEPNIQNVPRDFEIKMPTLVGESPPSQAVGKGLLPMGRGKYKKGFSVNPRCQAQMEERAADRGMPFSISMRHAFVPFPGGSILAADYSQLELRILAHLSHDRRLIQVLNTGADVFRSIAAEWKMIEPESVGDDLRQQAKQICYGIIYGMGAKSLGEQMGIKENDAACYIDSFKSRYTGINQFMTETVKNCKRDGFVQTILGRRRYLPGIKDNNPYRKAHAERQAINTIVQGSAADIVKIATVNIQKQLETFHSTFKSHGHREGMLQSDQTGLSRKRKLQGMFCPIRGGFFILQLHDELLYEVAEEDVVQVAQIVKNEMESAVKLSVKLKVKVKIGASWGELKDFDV

[5] = test system: HCC1937; test: Antiproliferative activity against BRCA1-deficient human HCC1937 cells assessed as inhibition of cell proliferation incubated for 5 days by MTT assay; format: functional, cell-based; details: HCC1937, 120 h
[6] = test system: HCT-116; test: Antiproliferative activity against BRCA2-deficient human HCT-116 cells assessed as inhibition of cell proliferation incubated for 5 days by MTT assay; format: functional, cell-based; details: HCT-116, 120 h
[7] = target: T2, Poly [ADP-ribose] polymerase 1 (Homo sapiens, UniProt P09874); details: dose 10.0 nM, time 90.0 min
T2 sequence (P09874 whole entry): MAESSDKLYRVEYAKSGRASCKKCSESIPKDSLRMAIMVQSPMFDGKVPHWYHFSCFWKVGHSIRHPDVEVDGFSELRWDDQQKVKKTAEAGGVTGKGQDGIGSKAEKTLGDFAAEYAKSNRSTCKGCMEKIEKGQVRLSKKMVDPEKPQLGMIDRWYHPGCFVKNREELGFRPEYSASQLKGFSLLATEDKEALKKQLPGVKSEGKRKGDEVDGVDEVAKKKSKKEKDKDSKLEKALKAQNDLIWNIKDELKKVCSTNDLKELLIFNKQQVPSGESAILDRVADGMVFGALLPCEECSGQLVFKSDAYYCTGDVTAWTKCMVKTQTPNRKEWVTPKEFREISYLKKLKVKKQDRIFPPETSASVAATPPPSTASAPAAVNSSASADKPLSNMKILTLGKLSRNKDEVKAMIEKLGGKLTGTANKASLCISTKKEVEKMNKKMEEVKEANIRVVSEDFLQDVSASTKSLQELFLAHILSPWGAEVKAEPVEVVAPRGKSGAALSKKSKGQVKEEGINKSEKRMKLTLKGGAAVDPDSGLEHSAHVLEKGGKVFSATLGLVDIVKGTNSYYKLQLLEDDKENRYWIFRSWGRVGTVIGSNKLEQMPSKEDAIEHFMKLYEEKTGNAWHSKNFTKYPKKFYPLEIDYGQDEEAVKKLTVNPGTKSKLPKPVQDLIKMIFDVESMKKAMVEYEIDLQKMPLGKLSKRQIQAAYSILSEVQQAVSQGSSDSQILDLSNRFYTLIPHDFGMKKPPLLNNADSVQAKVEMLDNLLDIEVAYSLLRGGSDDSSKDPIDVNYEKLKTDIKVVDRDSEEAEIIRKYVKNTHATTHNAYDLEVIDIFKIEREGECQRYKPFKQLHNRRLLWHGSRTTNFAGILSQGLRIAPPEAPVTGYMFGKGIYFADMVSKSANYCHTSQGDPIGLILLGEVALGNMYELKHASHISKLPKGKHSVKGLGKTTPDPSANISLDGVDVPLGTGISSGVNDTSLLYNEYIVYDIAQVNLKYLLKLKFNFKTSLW

[8] = as §1; format: toxicity, cell-based; details: human, MCF-10A cells
[9] = target: T1, DNA polymerase theta; test: Inhibition of DNA polymerase theta (unknown origin) (1 to 899 residues) ATPase activity by NADH oxidation-coupled enzymatic assay
[10] = test system: SW48; test: Antiproliferative activity against BRCA2-deficient human SW48 cells assessed as inhibition of cell proliferation incubated for 5 days by MTT assay; format: functional, cell-based; details: SW48, 120 h
[11] = target: T1, DNA polymerase theta; test: Inhibition of human DNA polymerase theta (67 to 970 residues) ATPase activity expressed in Sf9 insect cells incubated for 40 mins by ADP-glo assay
[12] = target: T2, Poly [ADP-ribose] polymerase 1; test: Inhibition of human PARP1 incubated for 90 mins by colorimetric assay
[13] = test system: MDA-MB-231; test: Induction of cell cycle arrest in human MDA-MB-231 cells assessed as accumulation of cells at G2/M phase at 10 uM incubated for 3 days by PI staining based flow cytometric analysis; format: functional; details: time 3.0 day
[14] = test system: MDA-MB-436; test: Inhibition of colony formation in human MDA-MB-436 cells at 10 uM incubated for 9 days by crystal violet staining based analysis; format: functional, cell-based; details: time 9.0 day
[15] = test system: MDA-MB-436; test: Inhibition of colony formation in human MDA-MB-436 cells at 2 to 10 uM incubated for 9 days in presence of olaparib by crystal violet staining based analysis; format: functional, cell-based; details: dose 2-10 µM, time 9.0 day
[16] = test system: MDA-MB-231; test: Induction of DNA damage in human MDA-MB-231 cells assessed as increase in tail intensity at 2 to 10 uM incubated for 3 days in presence of olaparib by florescence microscopic analysis; format: functional, cell-based; details: dose 2-10 µM, time 3.0 day
[17] = test system: MDA-MB-231; test: Antitumor activity against human MDA-MB-231 cells xenografted in BALB/c mouse assessed as tumor growth inhibition at 40 mg/kg, ip administered for 21 days in presence of olaparib; format: functional; details: MDA-MB-231, 504 h, time 21 day, read-out: TGI
[18] = test system: MDA-MB-231; test: Induction of cell cycle arrest in human MDA-MB-231 cells assessed as accumulation of cells at G2/M phase at 10 uM incubated for 3 days in presence of olaparib by PI staining based flow cytometric analysis; format: functional; details: time 3.0 day
[19] = test system: MDA-MB-231; test: Induction of apoptosis in human MDA-MB-231 cells at 2 to 10 uM incubated for 3 days in presence of olaparib by Annexin V-APC/7-AAD based flow cytometry analysis; format: functional; details: dose 2-10 µM, time 3 day
[20] = test system: MDA-MB-231; test: Induction of apoptosis in human MDA-MB-231 cells at 10 uM incubated for 3 days by Annexin V-APC/7-AAD based flow cytometry analysis; format: functional; details: time 3 day
[21] = test system: MDA-MB-231; test: Induction of DNA damage in human MDA-MB-231 cells assessed as increase in gammaH2AX foci at 2 to 10 uM incubated for 3 days in presence of olaparib by DAPI staining based confocal laser scanning microscopic analysis; format: functional, cell-based; details: dose 2-10 µM, time 3.0 day
[22] = test system: MDA-MB-231; test: Antitumor activity against human MDA-MB-231 cells xenografted in BALB/c mouse assessed as tumor growth inhibition at 40 mg/kg, ip administered for 21 days; format: functional; details: MDA-MB-231, 504 h, time 21 day, read-out: TGI
[23] = test system: MDA-MB-231; test: Antiproliferative activity against 53BP1-knockdown human MDA-MB-231 cells incubated for 24 hrs by MTT assay; format: functional, cell-based
[24] = test system: MDA-MB-231; test: Induction of DNA damage in human MDA-MB-231 cells assessed as increase in tail intensity at 10 uM incubated for 3 days by florescence microscopic analysis; format: functional, cell-based; details: time 3.0 day
[25] = test system: MDA-MB-231; test: Induction of DNA damage in human MDA-MB-231 cells assessed as increase in gammaH2AX foci at 10 uM incubated for 3 days by DAPI staining based confocal laser scanning microscopic analysis; format: functional, cell-based; details: time 3.0 day
[26] = test system: MDA-MB-231; test: Induction of cell cycle arrest in human MDA-MB-231 cells assessed as accumulation of cells at G2/M phase at 2 uM incubated for 3 days by PI staining based flow cytometric analysis; format: functional; details: time 3.0 day
[27] = test system: MDA-MB-231; test: Induction of cell cycle arrest in human MDA-MB-231 cells assessed as accumulation of cells at G2/M phase at 10 uM incubated for 3 days in presence of novobiocin by PI staining based flow cytometric analysis; format: functional; details: time 3.0 day
[28] = test system: MDA-MB-436; test: Inhibition of colony formation in human MDA-MB-436 cells at 2 uM incubated for 9 days by crystal violet staining based analysis; format: functional, cell-based; details: time 9.0 day
[29] = test system: MDA-MB-231; test: Induction of DNA damage in human MDA-MB-231 cells assessed as increase in tail intensity at 2 to 10 uM incubated for 3 days in presence of novobiocin by florescence microscopic analysis; format: functional, cell-based; details: dose 2-10 µM, time 3.0 day
[30] = test system: MDA-MB-231; test: Induction of DNA damage in human MDA-MB-231 cells assessed as increase in tail intensity at 2 uM incubated for 3 days by florescence microscopic analysis; format: functional, cell-based; details: time 3.0 day
[31] = test system: MDA-MB-231; test: Induction of apoptosis in human MDA-MB-231 cells at 2 to 10 uM incubated for 3 days in presence of novobiocin by Annexin V-APC/7-AAD based flow cytometry analysis; format: functional; details: dose 2-10 µM, time 3 day
[32] = test system: MDA-MB-436; test: Inhibition of colony formation in human MDA-MB-436 cells at 2 to 10 uM incubated for 9 days in presence of novobiocin by crystal violet staining based analysis; format: functional, cell-based; details: dose 2-10 µM, time 9.0 day
[33] = test system: MDA-MB-231; test: Induction of DNA damage in human MDA-MB-231 cells assessed as increase in gammaH2AX foci at 2 uM incubated for 3 days by DAPI staining based confocal laser scanning microscopic analysis; format: functional, cell-based; details: time 3.0 day
[34] = test system: MDA-MB-231; test: Induction of DNA damage in human MDA-MB-231 cells assessed as increase in gammaH2AX foci at 2 to 10 uM incubated for 3 days in presence of novobiocin by DAPI staining based confocal laser scanning microscopic analysis; format: functional, cell-based; details: dose 2-10 µM, time 3.0 day
[35] = test system: MDA-MB-231; test: Induction of apoptosis in human MDA-MB-231 cells at 2 uM incubated for 3 days by Annexin V-APC/7-AAD based flow cytometry analysis; format: functional; details: time 3 day

Row | SMILES | IC50 [1] | IC50 [2] | IC50 [4] | IC50 [5] | IC50 [6] | inhibition [7] | other results
1 | COc1cccc(F)c1-c1cc(C)ncc1C(=O)Nc1nnc(OC2CC3(CCN(C(=O)c4cc(Cc5n[nH]c(=O)c6ccccc56)ccc4F)CC3)C2)s1 | 5.5 µM | > 80 µM | 0.0793 µM | 65.6 µM | 7.2 µM | 72.8% | IC50 [3]: Non-Toxic
2 | O=C(Nc1nnc(OCc2ccc(Cl)cc2)s1)c1cc(Cc2n[nH]c(=O)c3ccccc23)ccc1F |  |  | > 1 µM |  |  |  | 
3 | COc1ccccc1-c1cnccc1C(=O)N1CCN(C(=O)c2cc(Cc3n[nH]c(=O)c4ccccc34)ccc2F)CC1 |  |  | > 1 µM |  |  | 87.9% | 
4 | COc1ccccc1-c1cnccc1C(=O)Nc1nnc(OCC2CN(C(=O)c3cc(Cc4n[nH]c(=O)c5ccccc45)ccc3F)C2)s1 |  |  | > 1 µM |  |  | 36.9% | 
5 | COc1ccccc1-c1cnccc1C(=O)Nc1nnc(N2CCN(C(=O)c3cc(Cc4n[nH]c(=O)c5ccccc45)ccc3F)CC2)s1 |  |  | > 1 µM |  |  | 91.4% | 
6 | COc1ccccc1-c1cnccc1C(=O)Nc1nnc(OCc2ccc(Cl)cc2)s1 | 59.4 µM | 92.1 µM | 0.0024 µM | 61.9 µM | 46.3 µM |  | IC50 at 5 days [8]: > 80 µM; IC50 [9]: < 0.2 µM; IC50 ([10]; read-out: IC50): 13.4 µM; IC50 [11]: 0.0024 µM
7 | COc1ccccc1-c1cnccc1C(=O)Nc1nnc(OCC2CCN(C(=O)c3cc(Cc4n[nH]c(=O)c5ccccc45)ccc3F)CC2)s1 | 5.6 µM | 32.6 µM | 0.117 µM | 18.1 µM | 17.6 µM | 91.6% | IC50 [3]: Non-Toxic
8 | COc1ccccc1-c1cnccc1C(=O)Nc1nnc(OC2CC3(C2)CN(C(=O)c2cc(Cc4n[nH]c(=O)c5ccccc45)ccc2F)C3)s1 |  |  | 0.268 µM |  |  | 56.4% | 
9 | COc1cnc(C(F)F)cc1-c1cc(N2CCC(C)CC2=O)ncc1C(=O)Nc1nnc(C#CC2CC2)s1 (stereo not given) |  |  |  |  |  |  | IC50 [9]: < 0.2 µM
10 | COc1ccccc1-c1cnccc1C(=O)Nc1nnc(N2CC3(CCN(C(=O)c4cc(Cc5n[nH]c(=O)c6ccccc56)ccc4F)CC3)C2)s1 |  |  | > 1 µM |  |  | 82.8% | 
11 | COc1ccc(Cl)cc1-c1cc(C)ncc1C(=O)Nc1nnc(OC2CC3(CCN(C(=O)c4cc(Cc5n[nH]c(=O)c6ccccc56)ccc4F)CC3)C2)s1 | 10.5 µM | > 80 µM | 0.0598 µM | 89.4 µM | 6.2 µM | 66.9% | IC50 [3]: Non-Toxic
12 | COc1ccc(F)cc1-c1cc(C)ncc1C(=O)Nc1nnc(OC2CC3(CCN(C(=O)c4cc(Cc5n[nH]c(=O)c6ccccc56)ccc4F)CC3)C2)s1 | 9.1 µM | > 80 µM | 0.0719 µM | 57.8 µM | 8.4 µM | 70.1% | IC50 [12]: 0.0047 µM; IC50 [3]: Non-Toxic
13 | CO[C@@H]1[C@@H](OC(N)=O)[C@@H](O)[C@H](Oc2ccc3c(O)c(NC(=O)c4ccc(O)c(CC=C(C)C)c4)c(=O)oc3c2C)OC1(C)C [NOVOBIOCIN] | 24.3 µM | > 80 µM |  | > 80 µM | > 80 µM |  | Activity [13]: Active; inhibition [14]: Active; inhibition [15]: Active; Activity [16]: Active; inhibition in vivo at 40 mg/kg [17]: 62.5%; Activity [18]: Active; Activity [19]: 14.2%; IC50 at 5 days [8]: > 80 µM; Activity [20]: 6.4%; IC50 ([10]; read-out: IC50): > 80 µM; Activity [21]: Active; inhibition in vivo at 40 mg/kg [22]: 45%; Activity [23]: Active; Activity [24]: Active; Activity [25]: Active
14 | COc1ccccc1-c1cnccc1C(=O)Nc1ncc(N2CCN(C(=O)c3cc(Cc4n[nH]c(=O)c5ccccc45)ccc3F)CC2)s1 |  |  | > 1 µM |  |  | 93.1% | 
15 | COc1ccccc1-c1cnccc1C(=O)Nc1nnc(OC2CC3(CCN(C(=O)c4cc(Cc5n[nH]c(=O)c6ccccc56)ccc4F)CC3)C2)s1 |  |  | 0.166 µM |  |  | 47% | 
16 | COc1ccccc1-c1cnccc1C(=O)Nc1nnc(OCc2cc(Cc3n[nH]c(=O)c4ccccc34)ccc2F)s1 |  |  |  |  |  | 30.3% | 
17 | O=C(c1cc(Cc2n[nH]c(=O)c3ccccc23)ccc1F)N1CCN(C(=O)C2CC2)CC1 [OLAPARIB] | 13.3 µM | 27.1 µM |  | 38.2 µM |  |  | Activity [26]: Active; Activity [27]: Active; inhibition [28]: Active; IC50 at 5 days [8]: > 80 µM; Activity [29]: Active; Activity [30]: Active; Activity [31]: 14.2%; inhibition [32]: Active; IC50 [10]: 4.6 µM; Activity [23]: inactive; Activity [33]: Active; Activity [34]: Active; Activity [35]: 8.9%
